Data on one molecule can be found in patent publication US20140221301A1, “COMBINATION TREATMENT FOR CANCER” (priority 2011, published 2014).

Where only a bound is given, the exact number is not on record here.

One data set relates to M9-ENL1 cells. The data set can be described thus: Chemical screen, MTS assay, M9-ENL1 cells. It is filed as cell-based, human. The following applies: 10 μM, 48 hours. The text has this: To identify compounds active against leukemia stem cells, a library of drugs (n=312) with well-characterized pharmacokinetics and toxicology and a wide therapeutic window was compiled. This library was then screened to identify agents that reduced the viability of TEX and M9-ENL1 cells. TEX and M9-ENL1 cells were derived from lineage-depleted human cord blood cells (Lin-CB) transduced with TLS-ERG or MLL-ENL oncogenes, respectively, and, as shown previously, display properties of stem cells including hierarchal differentiation and marrow repopulation^14, 15. In this screen, TEX and M9-ENL1 cells were treated with aliquots of the compounds. After incubation, cell growth and viability was measured by the MTS assay. From this screen, tigecycline was identified.
TEX, and M9-ENL-1 cells were seeded into 96-well polystyrene tissue culture plates (Corning). […] 72 (TEX) and 48 (M9-ENL-1) hours after incubation, cell growth and viability was measured by MTS assay. […]
Cell growth and viability was assessed by the MTS assay (Promega, Madison, Wis.) according to the manufacturer's instructions. Apoptosis and cell death was measured by Annexin V-fluroscein isothiocyanate (FITC; Biovision Research Products, Mountain View, Calif.), propidium iodide staining and flow cytometry according to the manufacturer's instructions and as previously described^30. […]
On the technique in general: Formazan colour is commonly taken as a measure of viable cells.

A further data set deals with TEX cells. The data set can be described thus: Apoptosis by Annexin V flow cytometry in TEX cells. In kind it is cell-based, human. The following applies: over time. On the procedure: FIG. 1. […] (A) TEX and (B) M9-ENL1 cells were plated in 96-well plates and drugs were added to the wells (5 μL per well) for final concentrations of 10 μM (shown) and 1 μM. Cell growth and viability was measured at 48 hours (M9-ENL-1) and 72 hours (TEX) by MTS assay. Cell viability is shown for each compound as a percent of cells treated with DMSO alone. (C) Leukemia, (D) myeloma, and (E) solid tumor cell lines were seeded in 96-well plates and then treated with increasing concentrations of tigecycline. Cell growth and viability was measured at 72 hours by MTS assay. Cell viability is expressed as mean percentage plus or minus SD (n=3) relative to vehicle-treated cells. […] Cell viability was measured at 72 hours by MTS assay. Cell viability is expressed as mean percentage plus or minus SD (n=3) relative to vehicle-treated cells.
(§1) Cell growth and viability was assessed by the MTS assay (Promega, Madison, Wis.) according to the manufacturer's instructions. Apoptosis and cell death was measured by Annexin V-fluroscein isothiocyanate (FITC; Biovision Research Products, Mountain View, Calif.), propidium iodide staining and flow cytometry according to the manufacturer's instructions and as previously described^30.
In general terms: Flow cytometry measures light scatter and fluorescence of single cells or particles in a stream.

Data set [1] deals with primary AML patient samples. The data set can be described thus: Cell viability by Annexin V staining, primary AML patient samples. In kind it is cell-based, human. On the procedure: as §1
In data set [2] the test system is normal hematopoietic cells. The data set can be described thus: Methylcellulose colony formation assay, normal hematopoietic cells. The following applies: 5 μM, normal hematopoietic cells n=5, 14 days. It is filed as cell-based, human. On the procedure: FIG. 2. Tigecycline induces cell death and inhibits clonogenic growth in primary AML cells preferential over normal hematopoietic cells. Mononuclear cells from peripheral blood of leukemia patients (blast count>80%) and normal G-CSF expanded donors was treated with increasing concentrations of tigecycline for 48 hours. Cell viability was measured by Annexin-PI flow cytometry staining. Cell viability is expressed as a mean percentage plus or minus SD (n=3) relative to DMSO-treated cells. Mononuclear cells from primary AML patient samples (A, B) and normal peripheral blood cells (C) were plated in methylcelluose with 5 μM of Tigecycline. (D) Colony forming units were counted at 7 days (AML) and 14 days (Normal) post plating. […]
To assess clonogenic growth, primary AML cells (1.0×10^5/mL) or granulocyte colony-stimulating factor (G-CSF) mobilized PBSCs (1.0×10^5/mL) were plated in duplicate with increasing concentrations of tigecycline in MethoCult GF H4434 medium (StemCell Technologies, Vancouver, BC) containing 1% methycellulose in IMDM, 30% FCS, 1% bovine serum albumin, 3 U/mL of recombinant human erythropoietin, 10^−4 M of 2-mercaptoethanol, 2 mM of L-glutamine, 50 ng/mL of recombinant human stem cell factor, 10 ng/mL of GM-CSF, and 10 ng/mL of rh IL-3). Seven days (AML samples) or 14 days (normal PBCS) after plating, the number of colonies was counted as previously described^31.

For a further data set, the system named is Complexes I and IV. In words: Respiratory chain enzyme activity relative to citrate synthase, Complexes I and IV. The following applies: TEX cells, 2.5 μM and 5 μM, 72 hours. In kind it is cell-based, human. How it is done:
FIG. 4. Tigecycline decreases mitochondrial Cox-1 protein levels in TEX cells. (A) Cells from TEX, OCI-AML2 and two primary AML patients were treated with increasing concentrations (2.5 μM and 5 μM) of tigecycline for 36 and 48 hours of tigecycline. Total proteins were extracted and analyzed by western blotting for Cox-1, Cox-2, Cox-4, grp78, XIAP, actin and tubulin. (B) TEX and AML patient cells were treated with increasing concentrations (2.5 μM and 5 μM) of tigecycline. Cox-1, Cox-2, and Cox-4 mRNA expression relative 18S was determined by quantitative RT-PCR. Data is shown as mean±SD. (C) TEX cells were treated with increasing concentrations of tigecycline and chloramphenicol (CAP) for 72 hours. Complex I, II and IV enzyme activity relative to citrate synthase activity was determined as described in materials and methods. […] Mitochondrial membrane potential (ΔΨ) was determined by staining cells with JC-1 dye, and flow cytometry analysis (Red/Green ratio). Reactive oxygen species generation (ROS) was determined by staining with h2-DCFDA and Dihydroethidium (DHE).
The effect of tigecycline treatment on enzyme activity of the respiratory chain complexes relative to the mitochondrial non-respiratory chain enzyme citrate synthase was examined. TEX leukemia cells were treated with tigecycline for […] and then respiratory chain enzyme relative to citrate synthase activity was analyzed. […]

The conditions of data set [3]: rat, in vivo, 30 mg/kg/day; cited from earlier work.

As to `CN(C)c1cc(NC(=O)CNC(C)(C)C)c(O)c2c1C[C@H]1C[C@H]3[C@H](N(C)C)C(O)=C(C(N)=O)C(=O)[C@@]3(O)C(O)=C1C2=O` [tigecycline], the “cell growth and viability in screen” value in the data set with M9-ENL1 cells is recorded as “cell growth inhibitor”. Also, the “apoptosis, percentage of cells labeled by Annexin V” value with TEX cells is “time-dependent increases in apoptosis”. Besides, the “relation of induced cytotoxicity to mitochondrial mass” value in data set [1] (AML samples, 5 μM and 10 μM, 48 hours) is reported as “correlates with increasing mitochondrial mass”. Moreover, the LD50 in data set [1] (more resistant group of patients, n=7, 48 hours) is greater than 9 µM; in data set [1] (sensitive subset of leukemia patients, n=13, 48 hours) it was 5 µM. The “reduction of clonogenic growth” value in data set [2] was determined as 34±5%. Moreover, in the data set on Complexes I and IV, the “enzyme activities of Complexes I and IV relative to citrate synthase” value is given as “decreased”. In data set [3], the toxicology findings result was “reversible anemia, thrombocytopenia, and leucopenia with a hypocellular bone marrow”.
